Tests used:
[1] = molecular target: GDP-bound NRAS wild-type protein (Homo sapiens, UniProt P01111); experiment: Binding to NRAS by surface plasmon resonance (SPR), Single Cycle Kinetics; details: SPR, GDP-bound NRAS wild-type vs GDP-bound KRAS wild-type
[2] = molecular target: GDP-bound HRAS wild-type protein (Homo sapiens, UniProt P01112); experiment: Binding to HRAS by surface plasmon resonance (SPR), Single Cycle Kinetics; details: SPR, GDP-bound HRAS wild-type vs GDP-bound KRAS wild-type
Sequence of GDP-bound HRAS wild-type protein (P01112 whole entry): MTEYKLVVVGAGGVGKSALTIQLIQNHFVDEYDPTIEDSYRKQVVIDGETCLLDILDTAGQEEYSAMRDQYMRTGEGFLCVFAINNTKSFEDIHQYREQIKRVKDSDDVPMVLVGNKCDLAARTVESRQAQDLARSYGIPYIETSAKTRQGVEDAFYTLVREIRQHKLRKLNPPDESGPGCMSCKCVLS

Sequence of GDP-bound NRAS wild-type protein (P01111 whole entry): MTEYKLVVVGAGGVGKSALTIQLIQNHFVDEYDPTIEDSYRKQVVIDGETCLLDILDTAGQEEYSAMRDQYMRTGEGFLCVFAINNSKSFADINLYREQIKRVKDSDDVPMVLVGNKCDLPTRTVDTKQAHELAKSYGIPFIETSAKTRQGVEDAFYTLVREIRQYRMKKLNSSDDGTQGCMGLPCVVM

SMILES | NRAS/KRAS (ratio of KD value with respect to NRAS to KD value with respect to KRAS) [1] | HRAS/KRAS (ratio of KD value with respect to HRAS to KD value with respect to KRAS) [2]
CCCOC[C@H]1C(=O)N[C@@H]([C@@H](C)OCC)C(=O)N(C)CC(=O)N(C)[C@H]2C/C=C\CCN(C2=O)[C@@H](Cc2ccc(C)cc2)C(=O)N(C)CC(=O)N[C@@H](CCc2cc(F)c(C(F)(F)F)c(F)c2)C(=O)N2C[C@@H](C)C[C@H]2C(=O)NC2(CC(C)(C)C2)C(=O)N(C)[C@@H](C2CCCC2)C(=O)N(C)[C@H](C(=O)N(C)CC)CC(=O)N1C [PP2424] | A (a compound having 10 or more and less than 20 is denoted as A) | A (a compound having 10 or more and less than 20 is denoted as A)
CCCO[C@H](C)[C@@H]1NC(=O)[C@H](COCC)N(C)C(=O)C[C@@H](C(=O)N(C)CC)N(C)C(=O)[C@H](C2CCCC2)N(C)C(=O)C2(CC(C)(C)C2)NC(=O)[C@@H]2C[C@H](C)CN2C(=O)[C@H](CCc2ccc(C(F)(F)F)c(OC)c2)NC(=O)CN(C)C(=O)[C@H](Cc2ccc(C)cc2)N2CC/C=C\C[C@@H](C2=O)N(C)C(=O)CN(C)C1=O [PP2425] | AA (a compound having 20 or more is denoted as AA) | A (a compound having 10 or more and less than 20 is denoted as A)
CCCO[C@H](C)[C@@H]1NC(=O)[C@H](COCC)N(C)C(=O)C[C@@H](C(=O)N(C)CC)N(C)C(=O)[C@H](C2CCCC2)N(C)C(=O)C2(CC(C)(C)C2)NC(=O)[C@@H]2C[C@H](C)CN2C(=O)[C@H](CCc2cc(F)c(C(F)(F)F)c(F)c2)NC(=O)CN(C)C(=O)[C@H](Cc2ccc(C)cc2)N2CC/C=C\C[C@@H](C2=O)N(C)C(=O)CN(C)C1=O [PP2426] | AA (a compound having 20 or more is denoted as AA) | A (a compound having 10 or more and less than 20 is denoted as A)
CCOC[C@H]1C(=O)N[C@@H]([C@@H](C)CC)C(=O)N2CCC[C@H]2C(=O)N(C)[C@H]2C/C=C\CCN(C2=O)[C@@H](Cc2ccc(C)cc2)C(=O)N(C)CC(=O)N[C@@H](CCc2ccc(C(F)(F)F)c(OC)c2)C(=O)N2C[C@@H](C)C[C@H]2C(=O)NC2(CC(C)(C)C2)C(=O)N(C)[C@@H](C2CCCC2)C(=O)N(C)[C@H](C(=O)N(C)CC)CC(=O)N1C [PP2427] | AA (a compound having 20 or more is denoted as AA) | A (a compound having 10 or more and less than 20 is denoted as A)
CCOC[C@H]1C(=O)N[C@@H]([C@@H](C)CC)C(=O)N2CCC[C@H]2C(=O)N(C)[C@H]2C/C=C\CCN(C2=O)[C@@H](Cc2ccc(C)cc2)C(=O)N(C)CC(=O)N[C@@H](CCc2cc(F)c(C(F)(F)F)c(F)c2)C(=O)N2C[C@H](OCC)C[C@H]2C(=O)NC2(CC(C)(C)C2)C(=O)N(C)[C@@H](C2CCCC2)C(=O)N(C)[C@H](C(=O)N(C)CC)CC(=O)N1C [PP2428] | A (a compound having 10 or more and less than 20 is denoted as A) | A (a compound having 10 or more and less than 20 is denoted as A)
CCCOC[C@H]1C(=O)N[C@@H]([C@@H](C)CC)C(=O)N2CCC[C@H]2C(=O)N(C)[C@H]2C/C=C\CCN(C2=O)[C@@H](Cc2ccc(C)cc2)C(=O)N(C)CC(=O)N[C@@H](CCc2ccc(C(F)(F)F)c(OC)c2)C(=O)N2C[C@@H](C)C[C@H]2C(=O)NC2(CC(C)(C)C2)C(=O)N(C)[C@@H](C2CCCC2)C(=O)N(C)[C@H](C(=O)N(C)CC)CC(=O)N1C [PP2429] | A (a compound having 10 or more and less than 20 is denoted as A) | B (a compound having 3 or more and less than 10 is denoted as B)
CCCOC[C@H]1C(=O)N[C@@H]([C@@H](C)CC)C(=O)N2CCC[C@H]2C(=O)N(C)[C@H]2C/C=C\CCN(C2=O)[C@@H](Cc2ccc(C)cc2)C(=O)N(C)CC(=O)N[C@@H](CCc2cc(F)c(C(F)(F)F)c(F)c2)C(=O)N2C[C@H](C)C[C@H]2C(=O)NC2(CC(C)(C)C2)C(=O)N(C)[C@@H](C2CCCC2)C(=O)N(C)[C@H](C(=O)N(C)CC)CC(=O)N1C [PP2430] | AA (a compound having 20 or more is denoted as AA) | A (a compound having 10 or more and less than 20 is denoted as A)
CCCOC[C@H]1C(=O)N[C@@H]([C@@H](C)OCC)C(=O)N2CCC[C@H]2C(=O)N(C)[C@H]2C/C=C\CCN(C2=O)[C@@H](Cc2ccc(C)cc2)C(=O)N(C)CC(=O)N[C@@H](CCc2ccc(C(F)(F)F)c(OC)c2)C(=O)N2C[C@@H](C)C[C@H]2C(=O)NC2(CC(C)(C)C2)C(=O)N(C)[C@@H](C2CCCC2)C(=O)N(C)[C@H](C(=O)N(C)CC)CC(=O)N1C [PP2431] | A (a compound having 10 or more and less than 20 is denoted as A) | A (a compound having 10 or more and less than 20 is denoted as A)
CCCOC[C@H]1C(=O)N[C@@H]([C@@H](C)OCC)C(=O)N2CCC[C@H]2C(=O)N(C)[C@H]2C/C=C\CCN(C2=O)[C@@H](Cc2ccc(C)cc2)C(=O)N(C)CC(=O)N[C@@H](CCc2cc(F)c(C(F)(F)F)c(F)c2)C(=O)N2C[C@H](OCC)C[C@H]2C(=O)NC2(CC(C)(C)C2)C(=O)N(C)[C@@H](C2CCCC2)C(=O)N(C)[C@H](C(=O)N(C)CC)CC(=O)N1C [PP2432] | A (a compound having 10 or more and less than 20 is denoted as A) | A (a compound having 10 or more and less than 20 is denoted as A)
CCOC[C@H]1C(=O)N[C@@H]([C@@H](C)OCC)C(=O)N2CCC[C@H]2C(=O)N(C)[C@H]2C/C=C\CCN(C2=O)[C@@H](Cc2ccc(C)cc2)C(=O)N(C)CC(=O)N[C@@H](CCc2ccc(C(F)(F)F)c(OC)c2)C(=O)N2C[C@@H](C)C[C@H]2C(=O)NC2(CC(C)(C)C2)C(=O)N(C)[C@@H](C2CCCC2)C(=O)N(C)[C@H](C(=O)N(C)CC)CC(=O)N1C [PP2433] | AA (a compound having 20 or more is denoted as AA) | A (a compound having 10 or more and less than 20 is denoted as A)
CCCO[C@H](C)[C@@H]1NC(=O)[C@H](COCC)N(C)C(=O)C[C@@H](C(=O)N(C)CC)N(C)C(=O)[C@H](C2CCCC2)N(C)C(=O)C2(CC(C)(C)C2)NC(=O)[C@@H]2C[C@@H](OCC)CN2C(=O)[C@H](CCc2cc(F)c(C(F)(F)F)c(F)c2)NC(=O)CN(C)C(=O)[C@H](Cc2ccc(C)cc2)N2CC/C=C\C[C@@H](C2=O)N(C)C(=O)[C@@H]2CCCN2C1=O [PP2436] | A (a compound having 10 or more and less than 20 is denoted as A) | A (a compound having 10 or more and less than 20 is denoted as A)
CC[C@H](C)[C@@H]1NC(=O)[C@H](COC)N(C)C(=O)C[C@@H](C(=O)N(C)CC)N(C)C(=O)[C@H](C2CCCC2)N(C)C(=O)C2(CC(C)(C)C2)NC(=O)[C@@H]2C[C@H](C)CN2C(=O)[C@H](CCc2cc(F)c(C(F)(F)F)c(F)c2)NC(=O)CN(C)C(=O)[C@H](Cc2ccc(C)cc2)N2CC/C=C\C[C@@H](C2=O)N(C)C(=O)CN(C)C1=O [PP2437] | A (a compound having 10 or more and less than 20 is denoted as A) | A (a compound having 10 or more and less than 20 is denoted as A)
CCO[C@@H]1C[C@H]2C(=O)NC3(CC(C)(C)C3)C(=O)N(C)[C@@H](C(CC)CC)C(=O)N(C)[C@H](C(=O)N(C)C)CC(=O)N(C)[C@@H](COC)C(=O)N[C@@H]([C@@H](C)CC)C(=O)N(C)CC(=O)N(C)[C@H]3C/C=C\CCN(C3=O)[C@@H](CC3CCC(F)(F)CC3)C(=O)N(C)CC(=O)N[C@@H](CCc3ccc(C(F)(F)F)c(OC)c3)C(=O)N2C1 [PP2438] | A (a compound having 10 or more and less than 20 is denoted as A) | A (a compound having 10 or more and less than 20 is denoted as A)
CCOC[C@H]1C(=O)N[C@@H]([C@@H](C)CC)C(=O)N(C)CC(=O)N(C)[C@H]2C/C=C\CCN(C2=O)[C@@H](Cc2ccc(C)cc2)C(=O)N(C)CC(=O)N[C@@H](CCc2cc(F)c(C(F)(F)F)c(F)c2)C(=O)N2C[C@@H](C)C[C@H]2C(=O)NC2(CC(C)(C)C2)C(=O)N(C)[C@@H](C2CCCC2)C(=O)N(C)[C@H](C(=O)N(C)C)CC(=O)N1C [PP2439] | A (a compound having 10 or more and less than 20 is denoted as A) | A (a compound having 10 or more and less than 20 is denoted as A)
CCO[C@@H]1C[C@H]2C(=O)NC3(CC(C)(C)C3)C(=O)N(C)[C@@H](C(CC)CC)C(=O)N(C)[C@H](C(=O)N(C)C)CC(=O)N(C)[C@@H](COC)C(=O)N[C@@H]([C@@H](C)CC)C(=O)N(C)CC(=O)N(C)[C@H]3C/C=C\CCN(C3=O)[C@@H](CC3CCC(F)(F)CC3)C(=O)N(C)CC(=O)N[C@@H](CCc3cc(F)c(C(F)(F)F)c(F)c3)C(=O)N2C1 [PP2440] | A (a compound having 10 or more and less than 20 is denoted as A) | A (a compound having 10 or more and less than 20 is denoted as A)
CC[C@H](C)[C@@H]1NC(=O)[C@H](COC)N(C)C(=O)C[C@@H](C(=O)N(CC)CC)N(C)C(=O)[C@H](C2CCCC2)N(C)C(=O)C2(CC(C)(C)C2)NC(=O)[C@@H]2C[C@H](C)CN2C(=O)[C@H](CCc2ccc(C(F)(F)F)c(OC)c2)NC(=O)CN(C)C(=O)[C@H](Cc2ccc(C)cc2)N2CC/C=C\C[C@@H](C2=O)N(C)C(=O)CN(C)C1=O [PP2441] | AA (a compound having 20 or more is denoted as AA) | A (a compound having 10 or more and less than 20 is denoted as A)

From patent publication US20250230193A1, “CYCLIC COMPOUND HAVING SELECTIVE KRAS INHIBITORY EFFECT ON HRAS AND NRAS” (CHUGAI SEIYAKU KABUSHIKI KAISHA, priority 2022, published 2025)
